Laboratory results: PubChem BioAssay (NCI)
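Exposure lasted 48 hours, with cells grown in 96-well plates and compounds tested at five concentrations. TGI: concentration producing complete growth inhibition.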

Tests used:
Experiment in all cases: NCI anticancer screen, dose series, 48 h
[1] = tested on: 786-0 renal
[2] = tested on: A498 renal
[3] = tested on: A549 NSCLC
[4] = tested on: ACHN renal
[5] = tested on: BT-549 breast
[6] = tested on: CCRF-CEM leukemia
[7] = tested on: COLO 205 colon
[8] = tested on: DU-145 prostate
[9] = tested on: EKVX NSCLC
[10] = tested on: HCC-2998 colon
[11] = tested on: HCT-116 colon
[12] = tested on: HCT-15 colon
[13] = tested on: HL-60(TB) leukemia
[14] = tested on: HOP-62 NSCLC
[15] = tested on: HOP-92 NSCLC
[16] = tested on: HS 578T breast
[17] = tested on: HT29 colon
[18] = tested on: IGROV1 ovarian
[19] = tested on: K-562 leukemia
[20] = tested on: KM12 colon
[21] = tested on: LOX IMVI melanoma
[22] = tested on: M14 melanoma
[23] = tested on: MALME-3M melanoma
[24] = tested on: MCF7 breast
[25] = tested on: MDA-MB-231 breast
[26] = tested on: MDA-MB-435
[27] = tested on: MDA-N
[28] = tested on: NCI-H23 lung
[29] = tested on: NCI-H460 lung
[30] = tested on: NCI-H522 lung
[31] = tested on: NCI/ADR-RES ovarian
[32] = tested on: OVCAR-3 ovarian
[33] = tested on: OVCAR-5 ovarian
[34] = tested on: OVCAR-8 ovarian
[35] = tested on: PC-3 prostate
[36] = tested on: RPMI-8226 leukemia
[37] = tested on: RXF 393 renal
[38] = tested on: SF-268 CNS
[39] = tested on: SF-295 CNS
[40] = tested on: SF-539 CNS
[41] = tested on: SK-MEL-2 melanoma
[42] = tested on: SK-MEL-28 melanoma
[43] = tested on: SK-MEL-5 melanoma
[44] = tested on: SK-OV-3 ovarian
[45] = tested on: SN12C renal
[46] = tested on: SNB-19 CNS
[47] = tested on: SNB-75 CNS
[48] = tested on: SW-620 colon
[49] = tested on: T-47D breast
[50] = tested on: TK-10 renal
[51] = tested on: U251 CNS
[52] = tested on: UACC-257 melanoma
[53] = tested on: UACC-62 melanoma
[54] = tested on: UO-31 renal
[55] = tested on: CAKI-1 renal
[56] = tested on: MOLT-4 leukemia
[57] = tested on: NCI-H226 lung
[58] = tested on: OVCAR-4 ovarian

With `O=C1C(Cl)=C(Cl)C(Cl)(Cl)C(Cl)C1(Cl)Cl` (configuration not stated) the TGI [1] was > 100 µM, the TGI [2] was 29.8 µM and the TGI [3] was 51.3 µM. The TGI [4] was > 100 µM, the TGI [5] was 54.1 µM and the TGI [6] was 82.7 µM. The TGI [7] was 41.2 µM, the TGI [8] was > 100 µM and the TGI [9] was 50.9 µM. For the same compound, the TGI [10] was 34.9 µM, the TGI [11] was 42.9 µM and the TGI [12] was 98.8 µM. It also gave a TGI [13] of 58.4 µM, a TGI [14] of 76.2 µM and a TGI [15] of 59.8 µM. For the same compound, the TGI [16] was 64.9 µM, the TGI [17] was 71.5 µM and the TGI [18] was 33.2 µM. The TGI [19] was > 100 µM, the TGI [20] was 50.6 µM and the TGI [21] was 41.6 µM. For the same compound, the TGI [22] was 90.8 µM, the TGI [23] was 49.5 µM and the TGI [24] was 55 µM. It also gave a TGI [25] of 44.6 µM, a TGI [26] of 59.2 µM and a TGI [27] of 66.2 µM. The TGI [28] was 52.9 µM, the TGI [29] was 47.4 µM and the TGI [30] was 32.5 µM. For the same compound, the TGI [31] was 64 µM, the TGI [32] was 47.4 µM and the TGI [33] was 58 µM. The TGI [34] was > 100 µM, the TGI [35] was 77.1 µM and the TGI [36] was 70.4 µM. It also gave a TGI [37] of 44.5 µM, a TGI [38] of 51.3 µM and a TGI [39] of 50.8 µM. It also gave a TGI [40] of 32.8 µM, a TGI [41] of 34.3 µM and a TGI [42] of 62.1 µM. The TGI [43] was 27.6 µM, the TGI [44] was 74.1 µM and the TGI [45] was 50.6 µM. For the same compound, the TGI [46] was 61 µM, the TGI [47] was 58.6 µM and the TGI [48] was 54.7 µM. It also gave a TGI [49] of 75.9 µM, a TGI [50] of 65.3 µM and a TGI [51] of 44.6 µM. For the same compound, the TGI [52] was 44.8 µM, the TGI [53] was 32.9 µM and the TGI [54] was 32.7 µM.
`O=c1cn[nH]c2nc3ccccc3n12` was tested, and the TGI [1] was > 100 µM, the TGI [2] was > 100 µM and the TGI [3] was > 100 µM. For the same compound, the TGI [4] was > 100 µM, the TGI [5] was > 100 µM and the TGI [55] was > 100 µM. The TGI [6] was > 100 µM, the TGI [7] was > 100 µM and the TGI [8] was > 100 µM. The TGI [9] was > 100 µM, the TGI [10] was > 100 µM and the TGI [11] was > 100 µM. For the same compound, the TGI [12] was > 100 µM, the TGI [13] was > 100 µM and the TGI [14] was > 100 µM. For the same compound, the TGI [15] was > 100 µM, the TGI [16] was > 100 µM and the TGI [17] was > 100 µM. The TGI [18] was > 100 µM, the TGI [20] was > 100 µM and the TGI [21] was > 100 µM. The TGI [22] was > 100 µM, the TGI [23] was > 100 µM and the TGI [24] was > 100 µM. For the same compound, the TGI [25] was > 100 µM, the TGI [26] was > 100 µM and the TGI [27] was > 100 µM. The TGI [56] was > 100 µM, the TGI [57] was > 100 µM and the TGI [28] was > 100 µM. The TGI [29] was > 100 µM, the TGI [30] was > 100 µM and the TGI [31] was > 100 µM. The TGI [58] was > 100 µM, the TGI [33] was > 100 µM and the TGI [34] was > 100 µM. The TGI [35] was > 100 µM, the TGI [37] was > 100 µM and the TGI [38] was > 100 µM. For the same compound, the TGI [39] was > 100 µM, the TGI [40] was > 100 µM and the TGI [41] was > 100 µM. For the same compound, the TGI [42] was > 100 µM, the TGI [43] was > 100 µM and the TGI [45] was > 100 µM. The TGI [46] was > 100 µM, the TGI [47] was > 100 µM and the TGI [48] was > 100 µM. The TGI [49] was > 100 µM, the TGI [50] was > 100 µM and the TGI [51] was > 100 µM. For the same compound, the TGI [52] was > 100 µM and the TGI [54] was > 100 µM.
